Like-named read-outs stand apart in the source and are kept apart here.
Tests used:
HTLA 230 = assay: MTS cell viability assay on HTLA 230 NB cells; assay type: cell-based, human; details: for cytotoxic effects vs. HTLA 230 higher than vs. HTLA ER: from IC50 values
Description: In this section, the strong anticancer effect of BPPB against ETO-sensitive HTLA 230 and multidrug-resistant (MDR) HTLA ER neuroblastoma (NB) cells previously reported was confirmed. Cell viability in HTLA 230 and HTLA ER cells exposed to increasing concentrations of BPPB for 24, 48, and 72 h was assessed by using the MTS essay, which is an efficient, eco- and user-friendly tool, commonly used to investigate the behaviour of cancer cells when exposed to specific treatments and how these treatments influence their growth and viability.
Following this, µM concentrations (x) were transformed in Log10 (x) (Figure 1e (HTLA 230) and Figure 1f (HTLA ER), traces with indicators and error bar). The nonlinear regression models of the Log10 (BPPB concentrations) vs. the normalized response (Hill Slope) shown in Figure 1e (HTLA 230) and Figure 1f (HTLA ER), traces without indicators, elaborated by GraphPad Prism software version 8.0.1 (GraphPad Software, Boston, MA, USA), gave us the IC50 values of BPPB for both cell populations at 24, 48, and 72 h of treatment.
HTLA 230 is a MYCN-amplified human stage-IV NB cell line, obtained from the G. Gaslini Institute, Genoa, Italy. The cytogenetic features of the HTLA 230 cell line include […] MYCN amplification, del(11)t(11;Y), balanced translocation t(1;17)(p36;q21), and dup(11p), which were previously described by Pezzolo et al.. Cells were periodically tested for mycoplasma contamination (Mycoplasma Reagent Set, Aurogene s.p.a, Pavia, Italy). After thawing and eight passages in the culture, cell morphology and proliferation were analyzed. […] Both cell populations were cultured in RPMI 1640 (Euroclone SpA, Pavia, Italy) supplemented with 10% fetal bovine serum (FBS; Euroclone, Pavia, Italy), 2 mM glutamine (Euroclone, Pavia, Italy), 1% penicillin/streptomycin (Euroclone, Pavia, Italy), 1% sodium pyruvate (Sigma-Aldrich, Sant Louis, MO, USA), and 1% amino acid solution (Sigma).
To determine the cytotoxic effects of BPPB, in vitro time- and dose-dependent experiments were carried out, as recently described. Briefly, cells were treated for 24, 48, and 72 h, with increasing concentrations (0.1–2.0 µM) of the compound. […] Cell cultures were carefully monitored before and during the experiments to ensure optimal cell density.
Cell viability was determined by using the CellTiter 96® AQueous One Solution Cell Proliferation MTS Assay (Promega, Madison, WI, USA), as previously described. MTS is a colorimetric method commonly used for determining cell viability. The cell survival rate, expressed as the cell viability percentage (%), was evaluated based on the experimental outputs of treated cells vs. the untreated ones (CTRs), and was calculated as follows: cell viability (%) = (OD treated cells − OD blank)/(OD untreated cells − OD blank) × 100%. IC50 values were calculated by GraphPad Prism 8.0.1 Software (GraphPad Software v8.0, San Diego, CA, USA), as detailed in the Results and Discussion in Section 2.

RBCs = assay: Haemolytic toxicity on red blood cells; assay type: cell-based; details: for SI 24 h: 24 h exposure of NB cells; for SI 48 h: 48 h exposure of NB cells; for SI 72 h: 72 h exposure of NB cells
Description: The IC50 values reported in Table 3 were determined after 24, 48, and 72 h of exposure of NB cells and primary cortical astrocytes and neurons to BPPB, and the HC50 determined on RBCs after the time of experiments, as for protocol, was used to calculate the SIs according to Equation (1), as reported in Table 4.

c1ccc([P+](CCCCCCCCCCCC[P+](c2ccccc2)(c2ccccc2)c2ccccc2)(c2ccccc2)c2ccccc2)cc1 [BPPB, 1,1-(1,12-dodecanediyl)-bis-[1,1,1]-triphenyl phosphonium di-bromide]
cell viability (HTLA 230; 0.25 µM, 72 h): 47.6%
cell viability (HTLA 230; 0.5 µM, 48 h): 41.8%
cell viability (HTLA 230; 0.75 µM, 24 h): 42.5%
concentration causing significant reduction in cells' viability (HTLA 230; 24 h): ≥ 0.5 µM
cell viability (HTLA 230; 24 h, concentrations ≥ 0.75 µM up to 2 µM): 39.3–45.3%
cytotoxic effects vs. HTLA 230 higher than vs. HTLA ER (HTLA 230; 24 h): 25.3%
IC50 (HTLA 230; 24 h exposure, 0.1–2 µM, read-out: IC50 HTLA 230): 926 ± 164 nM
concentration causing significant reduction in cells' viability (HTLA 230; 48 h): ≥ 0.1 µM
cell viability (HTLA 230; 48 h, concentrations ≥ 0.5 µM up to 2 µM): 36.2–41.9%
cytotoxic effects vs. HTLA 230 higher than vs. HTLA ER (HTLA 230; 48 h): 65.9%
IC50 (HTLA 230; 48 h exposure, 0.1–2 µM, read-out: IC50 HTLA 230): 462 ± 103 nM
concentration causing significant reduction in cells' viability (HTLA 230; 72 h): ≥ 0.25 µM
cytotoxic effects vs. HTLA 230 higher than vs. HTLA ER (HTLA 230; 72 h): 67.5%
cell viability (HTLA 230; 72 h, lowest value reached with increasing concentrations (up to 2 µM)): 21.7%
IC50 (HTLA 230; 72 h exposure, 0.1–2 µM, read-out: IC50 HTLA 230): 389 ± 83.6 nM
more cytotoxic than TiO2-Ta nanoparticles (HTLA 230; HTLA 230 and HTLA ER vs. SH-SY5Y, 24 h): 64–86 fold
anticancer effects higher than compound 3 with PDT/SDT (HTLA 230; HTLA 230 and HTLA ER, 24 h): 10.3–14.7 times
more potent than Ag20Pep (HTLA 230; HTLA 230 and HTLA ER, 24 h): 105–143 times
more potent than Ag40Pep (HTLA 230; HTLA 230 and HTLA ER, 24 h): 132–182 times
more potent than Ag20Pep (HTLA 230; HTLA 230 and HTLA ER, 48 h): 18–54 times
more potent than Ag40Pep (HTLA 230; HTLA 230 and HTLA ER, 48 h): 29–90 times
cytotoxicity higher than that of compounds 9–13 of Skrzypczak et al. (HTLA 230; HTLA 230 and HTLA ER, 72 h): 1.7–5.1 fold
more cytotoxic than AgNPs (HTLA 230; HTLA 230 and HTLA ER, 72 h): 4–30 times
IC50 (HTLA 230; over 24, 48, 72 h exposure, read-out: IC50 values towards drug-sensitive HTLA 230): 400 to 900 nM
SI 24 h (RBCs; RBCs vs. HTLA 230): 16.81
SI 48 h (RBCs; RBCs vs. HTLA 230): 33.66
SI 72 h (RBCs; RBCs vs. HTLA 230): 39.98
SI 24 h (RBCs; RBCs vs. HTLA ER): 12.56
SI 48 h (RBCs; RBCs vs. HTLA ER): 11.49
SI 72 h (RBCs; RBCs vs. HTLA ER): 12.98

Reference: paper PMC12154426, “TPP-Based Nanovesicles Kill MDR Neuroblastoma Cells and Induce Moderate ROS Increase, While Exerting Low Toxicity Towards Primary Cell Cultures: An In Vitro Study” (International Journal of Molecular Sciences, 2025)
